{
  "source": "ChEMBL document CHEMBL1932947",
  "about": "“Emodin inhibits migration and invasion of DLD-1 (PRL-3) cells via inhibition of PRL-3 phosphatase activity” (Bioorg Med Chem Lett, 2012)",
  "key": {"[1]": {"molecular_target": "T1, Protein tyrosine phosphatase type IVA 3 (Homo sapiens, UniProt O75365)", "T1 sequence (O75365 whole entry)": "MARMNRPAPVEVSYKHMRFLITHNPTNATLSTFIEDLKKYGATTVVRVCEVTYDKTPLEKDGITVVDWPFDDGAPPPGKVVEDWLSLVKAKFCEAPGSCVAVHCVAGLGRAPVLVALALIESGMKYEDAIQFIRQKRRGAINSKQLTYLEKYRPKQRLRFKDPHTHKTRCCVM", "assay": "Inhibition of PRL-3-mediated cell invasion in human DLD1 cells at 40 uM after 20 hrs using crystal violet staining by Matrigel invasion assay", "assay_type": "cell-based", "conditions": "DLD-1"}, "[2]": {"molecular_target": "T1, Protein tyrosine phosphatase type IVA 3", "assay": "Inhibition of PRL3-mediated ezrin phosphorylation in human DLD1 cells assessed as increase in alpha-ERM-Thr567 phosphorylation at 10 to 40 uM after 15 hrs by chemiluminescence method relative to control", "assay_type": "cell-based", "conditions": "DLD-1"}, "[3]": {"molecular_target": "T1, Protein tyrosine phosphatase type IVA 3", "assay": "Inhibition of PRL-3-mediated cell migration in human DLD1 cells at 40 uM after 15 hrs by crystal violet staining based microscopic assay", "conditions": "DLD-1"}, "[4]": {"test_system": "DLD-1", "assay": "Cytotoxicity against human DLD1 cells expressing PRL-3 assessed as inhibition of cell proliferation up to 50 uM after 24 hrs by WST-1 assay", "assay_type": "cell-based", "conditions": "dld-1, 24 h"}, "[5]": {"molecular_target": "T1, Protein tyrosine phosphatase type IVA 3", "assay": "Inhibition of PRL3 after 1 hr by DiFMUP assay"}, "[6]": {"molecular_target": "Ezrin (Homo sapiens) (UniProt P15311)", "sequence (P15311 whole entry)": "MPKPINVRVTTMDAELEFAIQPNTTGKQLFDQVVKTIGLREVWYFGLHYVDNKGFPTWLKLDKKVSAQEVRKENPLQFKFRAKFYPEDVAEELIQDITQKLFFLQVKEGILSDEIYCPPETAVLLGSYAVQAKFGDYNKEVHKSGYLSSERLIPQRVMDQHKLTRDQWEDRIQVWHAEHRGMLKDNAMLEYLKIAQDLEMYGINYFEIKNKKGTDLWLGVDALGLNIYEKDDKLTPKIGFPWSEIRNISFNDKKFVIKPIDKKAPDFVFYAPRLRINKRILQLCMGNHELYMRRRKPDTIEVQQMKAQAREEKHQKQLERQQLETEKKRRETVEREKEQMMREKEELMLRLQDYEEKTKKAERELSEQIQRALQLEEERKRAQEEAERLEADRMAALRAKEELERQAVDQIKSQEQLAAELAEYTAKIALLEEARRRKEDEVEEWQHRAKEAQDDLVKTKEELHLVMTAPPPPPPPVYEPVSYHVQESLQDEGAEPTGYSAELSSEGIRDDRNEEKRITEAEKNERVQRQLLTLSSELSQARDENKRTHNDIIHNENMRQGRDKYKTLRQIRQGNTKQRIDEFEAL", "assay": "Inhibition of ezrin phosphorylation in human DLD1 cells assessed as increase in alpha-ERM-Thr567 phosphorylation at 10 to 40 uM after 15 hrs by chemiluminescence method", "assay_type": "cell-based", "conditions": "DLD-1"}, "[7]": {"molecular_target": "T1, Protein tyrosine phosphatase type IVA 3", "assay": "Inhibition of PRL-3-mediated cell migration in human DLD1 cells after 15 hrs by crystal violet staining based microscopic assay", "conditions": "DLD-1"}, "[8]": {"molecular_target": "T1, Protein tyrosine phosphatase type IVA 3", "assay": "Inhibition of PRL-3-mediated cell invasion in human DLD1 cells after 20 hrs using crystal violet staining by Matrigel invasion assay", "assay_type": "cell-based", "conditions": "DLD-1"}},
  "note": "Activity calls are given as the source filed them. The calls are words filed in the database; no cut-off is given here.",
  "data": [
    {"smiles": "Cc1cc(O)c2c(c1)C(=O)c1cc(O)cc(O)c1C2=O", "note": "[EMODIN]", "values": [
      {"measurement": "inhibition", "setting": "[1]", "result": 70, "unit": "%"},
      {"measurement": "inhibition", "setting": "[2]", "result": "Active"},
      {"measurement": "inhibition", "setting": "[3]", "result": "> 80", "unit": "%"},
      {"measurement": "Activity", "setting": "[4]", "result": "Non-toxic"},
      {"measurement": "IC50", "setting": "[5]", "result": 3.5, "unit": "µM"},
      {"measurement": "inhibition", "setting": "[5]", "result": "Dose-dependent effect"},
      {"measurement": "inhibition", "setting": "[6]", "result": "inactive"},
      {"measurement": "inhibition", "setting": "[7]", "result": "Dose-dependent effect"},
      {"measurement": "inhibition", "setting": "[8]", "result": "Dose-dependent effect"}
    ]}
  ]
}
